Test results: US20100081200A1, “FORMULATIONS AND METHODS FOR CULTURING STEM CELLS” (priority 2007, published 2010)

Tests used:
embryonic stem cells = experiment: Effect of lithium chloride on embryonic stem cells; assay type: cell-based
Excerpt: Thus, in some specific embodiments, the serum replacement is devoid lithium chloride.

[1] = system: embryonic stem cell colonies; experiment: Effect of fetuin and α-fetoprotein on growth rate and size of embryonic stem cell colonies; assay type: cell-based; conditions: human serum albumin 10 mg/ml
Procedure: All formulations shown contained human serum albumin at a concentration of 10 mg/ml.
The composition of the formulation according to this embodiment of the present invention was further optimized as described above in Table 2.

Molecule	effect on embryonic stem cells (embryonic stem cells)	concentration that increased colony size and growth rate the most [1]
[Cl-].[Li+] [lithium chloride]	may be harmful for embryonic stem cells resulting in differentiation	
A: α-fetoprotein, commercially available fetal carrier protein (protein, UniProt P02771 19-609, looked up) Alpha-fetoprotein: RTLHRNEYGIASILDSYQCTAEISLADLATIFFAQFVQEATYKEVSKMVKDALTAIEKPTGDEQSSGCLENQLPAFLEELCHEKEILEKYGHSDCCSQSEEGRHNCFLAHKKPTPASIPLFQVPEPVTSCEAYEEDRETFMNKFIYEIARRHPFLYAPTILLWAARYDKIIPSCCKAENAVECFQTKAATVTKELRESSLLNQHACAVMKNFGTRTFQAITVTKLSQKFTKVNFTEIQKLVLDVAHVHEHCCRGDVLDCLQDGEKIMSYICSQQDTLSNKITECCKLTTLERGQCIIHAENDEKPEGLSPNLNRFLGDRDFNQFSSGEKNIFLASFVHEYSRRHPQLAVSVILRVAKGYQELLEKCFQTENPLECQDKGEEELQKYIQESQALAKRSCGLFQKLGEYYLQNAFLVAYTKKAPQLTSSELMAITRKMAATAATCCQLSEDKLLACGEGAADIIIGHLCIRHEMTPVNPGVGQCCTSSYANRRPCFSSLVVDETYVPPAFSDDKFIFHKDLCQAQGVALQTMKQEFLINLVKQKPQITEEQLEAVIADFSGLLEKCCQGQEQEVCFAEEGQKLISKTRAALGV		0.05 mg/mL
